# Measurements from patent US8053574B2, “Organic compounds” (Novartis AG, priority 2007, dated 2011).
# Molecular target: PI3K γ (Homo sapiens, UniProt P48736)
# Experiment: PI3 kinase phosphorylation assay (Biological Method 1), Ki γ
# Assay type: biochemical
# Settings: Table 1, compounds of formula X
# Method: The compounds of the invention were synthesized according to the examples provided above. PI3K inhibitory (IC50) values of the compounds were determined according to Biological Method 1.
# Assay 1: Homogenous Solution Phase Assay
# Compounds to be tested are dissolved in DMSO and directly distributed into 384-well flashplates at 1.25 μL per well. To start the reaction, 20 μL of 6 nM PI3 kinase are added into each well followed by 20 μL of 400 nM ATP containing a trace of radiolabeled ATP and 900 nM 1-alpha-phosphatidylinositol (PI). The plates are briefly centrifuged to remove any air gap. The reaction is performed for 15 minutes and then stopped by the addition of 20 μL of 100 mM EDTA. The stopped reaction is incubated overnight at RT to allow the lipid substrate to bind by hydrophobic interaction to the surface of the flashplate. The liquid in the wells is then washed away, and the labeled substrate is detected with scintillation counting.
# Assay 2: One Step Solid Phase Assay
# This method is similar to Assay 1 except that the lipid substrate (1-alpha-phosphatidylinositol (PI)) is first dissolved in a coating buffer and incubated on flashplate at room temperature overnight to allow the lipid substrate to bind by hydrophobic interaction to the surface of the flashplate. Unbound substrate is then washed away. On the day of assay, 20 μL of 6 nM PI3 kinase are added into each well followed by 20 μL of 400 nM ATP containing trace of radiolabeled ATP. Compounds are added together with enzyme and ATP to the lipid-coated plates. The plates are briefly centrifuged to remove any air gap. The reaction is performed for two to three hours. The reaction is stopped by addition of 20 μL of 100 mM EDTA or by immediate plate washing. Phosphorylated lipid substrate is detected by scintillation counting.
# Assay 3: ATP Depletion Assay
# Compounds to be tested are dissolved in DMSO and directly distributed into a black 384-well plate at 1.25 μL per well. To start the reaction, 25 μL of 10 nM PI3 kinase and 5 μg/mL 1-alpha-phosphatidylinositol (PI) are added into each well followed by 25 μL of 2 μM ATP. The reaction is performed until approx 50% of the ATP is depleted, and then stopped by the addition of 25 μL of KinaseGlo solution. The stopped reaction is incubated for 5 minutes and the remaining ATP is then detected via luminescence.
# Chain of PI3K γ (P48736 whole entry): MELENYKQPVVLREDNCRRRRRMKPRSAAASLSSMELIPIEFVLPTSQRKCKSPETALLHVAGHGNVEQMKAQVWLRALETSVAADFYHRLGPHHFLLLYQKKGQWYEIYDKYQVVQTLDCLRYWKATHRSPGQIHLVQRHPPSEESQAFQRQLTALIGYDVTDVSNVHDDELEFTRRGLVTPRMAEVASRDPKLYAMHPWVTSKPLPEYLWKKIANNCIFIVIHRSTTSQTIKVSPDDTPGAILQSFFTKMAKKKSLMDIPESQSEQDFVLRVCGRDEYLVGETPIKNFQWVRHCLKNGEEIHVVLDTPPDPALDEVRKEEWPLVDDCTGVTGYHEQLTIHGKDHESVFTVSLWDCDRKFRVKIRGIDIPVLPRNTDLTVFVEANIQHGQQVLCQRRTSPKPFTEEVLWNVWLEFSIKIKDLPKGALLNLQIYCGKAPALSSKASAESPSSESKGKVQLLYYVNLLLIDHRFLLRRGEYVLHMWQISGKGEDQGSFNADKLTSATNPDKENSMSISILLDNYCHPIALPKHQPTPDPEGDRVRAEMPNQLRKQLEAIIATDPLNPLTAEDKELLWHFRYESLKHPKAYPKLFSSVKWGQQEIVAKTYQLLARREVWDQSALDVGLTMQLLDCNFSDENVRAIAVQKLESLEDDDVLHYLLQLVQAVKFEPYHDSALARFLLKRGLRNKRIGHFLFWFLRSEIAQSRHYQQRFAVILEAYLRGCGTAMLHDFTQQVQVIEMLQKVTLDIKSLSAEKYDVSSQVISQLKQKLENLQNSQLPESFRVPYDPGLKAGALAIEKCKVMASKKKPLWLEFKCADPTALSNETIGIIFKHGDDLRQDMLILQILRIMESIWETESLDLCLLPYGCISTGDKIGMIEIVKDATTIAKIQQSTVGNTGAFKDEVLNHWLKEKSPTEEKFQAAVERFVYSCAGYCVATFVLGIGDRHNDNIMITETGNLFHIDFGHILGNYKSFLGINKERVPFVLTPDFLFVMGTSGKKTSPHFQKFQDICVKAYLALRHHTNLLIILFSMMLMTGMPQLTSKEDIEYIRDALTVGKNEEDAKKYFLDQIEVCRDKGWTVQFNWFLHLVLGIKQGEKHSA
row,Compound,Ki [µM]
1,COc1ccc(-c2ccc3nc(NC(=O)NCCc4nnn(C(C)C)n4)cn3c2)cn1 [drawing 51],0.301
2,CCn1nnc(CCNC(=O)Nc2cn3cc(-c4cnn(C)c4)ccc3n2)n1 [drawing 93],0.456
3,COCCOCCOc1cncc(-c2ccc3nc(NC(=O)NCCc4nnn(C(C)C)n4)cn3c2)c1 [drawing 47],0.268
4,CCn1nnc(CCNC(=O)Nc2cn3cc(-c4cccc(C(F)(F)F)c4)ccc3n2)n1 [drawing 31],0.24
5,CC(C)n1nnc(CCNC(=O)Nc2cn3cc(-c4ccncc4)ccc3n2)n1 [drawing 17],0.135
6,CCn1nnc(CCNC(=O)Nc2cn3cc(-c4ccc5c(c4)OCO5)ccc3n2)n1 [drawing 29],0.303
7,CC(C)(C)NC(=O)CCNC(=O)Nc1cn2cc(-c3cncc(OC4CCOCC4)c3)ccc2n1 [drawing 49],0.397
8,Cn1nnc(CCNC(=O)Nc2cn3cc(-c4cncc(C(F)(F)F)c4)ccc3n2)n1 [drawing 89],0.012
9,CC(C)n1nnc(CCNC(=O)Nc2cn3cc(-c4cncc(C#N)c4)ccc3n2)n1 [drawing 19],0.04
10,CC(C)n1nnc(CCNC(=O)Nc2cn3cc(-c4cncc(S(C)(=O)=O)c4)ccc3n2)n1,0.014

# Same assay, conditions: Table 2, compounds of formula X
row,Compound,Ki [µM]
1,"CC(C)n1nnc(CCNC(=O)Nc2cn3cc(-c4ccncc4)ccc3n2)n1 [Example 1-2, 1-[2-(2-Isopropyl-2H-tetrazol-5-yl)-ethyl]-3-(6-pyridin-4-yl-imidazo[1,2-a]pyridin-2-yl)-urea]",0.135
2,"CCn1nnc(CNC(=O)Nc2cn3cc(-c4cncc(C(F)(F)F)c4)ccc3n2)n1 [Example 1-21, 1-(2-Ethyl-2H-tetrazol-5-ylmethyl)-3-[6-(5-trifluoromethyl-pyridin-3-yl)-imidazo[1,2-a]pyridin-2-yl]urea]",0.014
3,"CC(C)(C)NC(=O)CCNC(=O)Nc1cn2cc(-c3cncc(OC4CCOCC4)c3)ccc2n1 [Example 1-18, N-tert-Butyl-3-(3-{6-[5-(tetrahydro-pyran-4-yloxy)-pyridin-3-yl]-imidazo[1,2-a]pyridin-2-yl}-ureido)-propionamide]",0.397
4,"COCCOCCOc1cncc(-c2ccc3nc(NC(=O)NCCc4nnn(C(C)C)n4)cn3c2)c1 [Example 1-17, 1-[2-(2-Isopropyl-2H-tetrazol-5-yl)-ethyl]-3-(6-{5-[2-(2-methoxy-ethoxy)-ethoxy]-pyridin-3-yl}-imidazo[1,2-a]pyridin-2-yl)-urea]",0.268
5,"COc1cccc(-c2ccc3nc(NC(=O)NCCc4nnn(C(C)C)n4)cn3c2)c1 [Example 1-29, 1-[2-(2-Isopropyl-2H-tetrazol-5-yl)-ethyl]-3-[6-(3-methoxy-phenyl)-imidazo[1,2-a]pyridin-2-yl]-u]",1.03
6,"Cn1nnc(CCNC(=O)Nc2cn3cc(-c4cncc(C(F)(F)F)c4)ccc3n2)n1 [Example 1-38, 1-[2-(2-Methyl-2H-tetrazol-5-yl)-ethyl]-3-[6-(5-trifluoromethyl-pyridin-3-yl)-imidazo[1,2-a]pyridin-2-yl]-urea]",0.012
7,"CCn1nnc(CCNC(=O)Nc2cn3cc(-c4cnn(C)c4)ccc3n2)n1 [Example 1-40, 1-[2-(2-Ethyl-2H-tetrazol-5-yl)-ethyl]-3-[6-(1-methyl-1H-pyrazol-4-yl)-imidazo[1,2-a]pyridin-2-yl]urea]",0.456
8,"CCc1nnn(CCNC(=O)Nc2cn3cc(-c4cncc(C#N)c4)ccc3n2)n1 [Example 1-26, 1-[6-(5-Cyano-pyridin-3-yl)-imidazo[1,2-a]pyridin-2-yl]-3-[2-(5-ethyl-tetrazol-2-yl)-ethyl]-urea]",0.115
9,"CCOc1cncc(-c2ccc3nc(NC(=O)NCCc4nnn(C(C)C)n4)cn3c2)c1 [Example 1-6, 1-[6-(5-Ethoxy-pyridin-3-yl)-imidazo[1,2-a]pyridin-2-yl]-3-[2-(2-isopropyl-2H-tetrazol-5-yl)-ethyl]-urea]",0.048
10,"CCn1nnc(CCNC(=O)Nc2cn3cc(-c4cc(Cl)ccc4OC)ccc3n2)n1 [Example 1-14, 1-[6-(5-Chloro-2-methoxy-phenyl)-imidazo[1,2-a]pyridin-2-yl]-3-[2-(2-ethyl-2H-tetrazol-5-yl)-ethyl]urea]",0.204
11,"O=C(NCCn1nnc(C2CC2)n1)Nc1cn2cc(-c3cncc(C(F)(F)F)c3)ccc2n1 [Example 1-27, 1-[2-(5-Cyclopropyl-tetrazol-2-yl)-ethyl]-3-[6-(5-trifluoromethyl-pyridin-3-yl)-imidazo[1,2-a]pyridin-2-yl]-urea]",0.028
12,"1-[2-(2-Isopropyl-2H-tetrazol-5-yl)-ethyl]-3-(6-quinolin-3-yl-imidazo[1,2-a]pyridin-2-yl)-urea [Example 1-49]",0.57
13,"Cc1cc(NC(=O)CCNC(=O)Nc2cn3cc(Br)ccc3n2)no1 [Example 1-46, 3-[3-(6-Bromo-imidazo[1,2-a]pyridin-2-yl)-ureido]-N-(5-methyl-isoxazo-3-yl)-propionamide]",4.98

# Same assay, conditions: Table 3, compounds of formula XI
row,Compound,Ki [µM]
1,"COc1ccc(-c2ccc3nc(NC(=O)NCCN(C)C)sc3c2)cn1 [Example 2-3, 1-(2-Dimethylamino-ethyl)-3-[6-(6-methoxy-pyridin-3-yl)-benzothiazol-2-yl]urea]",0.038
2,"CCn1nnc(CCNC(=O)Nc2nc3ccc(-c4cncc(C(F)(F)F)c4)cc3s2)n1 [Example 2-9, 1-[2-(2-Ethyl-2H-tetrazol-5-yl)-ethyl]-3-[6-(5-trifluoromethyl-pyridin-3-yl)-benzothiazol-2-yl]-urea]",0.06
3,"O=C(NCCc1nnn(CCF)n1)Nc1nc2ccc(-c3cncc(C(F)(F)F)c3)cc2s1 [Example 2-8, 1-{2-[2-(2-Fluoro-ethyl)-2H-tetrazol-5-yl]-ethyl}-3-[6-(5-trifluoromethyl-pyridin-3-yl)-benzothiazol-2-yl]urea]",0.016
4,"COc1ccc(-c2ccc3nc(NC(=O)NCCO)sc3c2)cn1 [Example 2-4, 1-(2-Hydroxy-ethyl)-3-[6-(6-methoxy-pyridin-3-yl)-benzothiazol-2-yl]-urea]",0.038
